Measured values as given in patent publication US20110039763A1, “TARGETED ANTIMICROBIAL MOIETIES” (C3 JIAN, INC., priority 2009, published 2011).
Entries after “also recorded” stand apart in the source; their conditions may differ.

Assays:
microorganisms [1] = test: Targeting peptide binding to target microorganisms (Tables 3, 10, 12); details: microorganism(s) the targeting peptide binds; binding in aqueous buffers varied with peptide solubility, preferably 1x PBS
microorganisms [2] = test: Peptide activities: targeting/binding, antimicrobial, growth or phenotype altering (Tables 7, 8); type: cell-based; details: peptides having multiple activities
microorganisms [3] = test: Morphology, biofilm and growth disrupting peptides (Table 5); type: cell-based; set-up: key: A: Peptide aggregates; B: Less hyphal formation; Clumps; Diffuse clumps and small polyps; F: Diffuse growth; H: Thin; I: Growth inhibition; Microcolony formation; Rippled; Small polyps; Thick; W: Halo formation on top, microlonies on bottom
Source text: In certain embodiments peptides that induce alterations in phenotype or other biological activities can also be used as antimicrobial effector moieties.

| Substance | Target(s) (microorganisms [1]) | Activities (microorganisms [2]) | Organism, effect (microorganisms [3]; MRSA) | Organism, effect (microorganisms [3]; S. epidermidis) | Organism, effect (microorganisms [3]; S. pneumoniae) | Organism, effect (microorganisms [3]; S. mutans) | further results |
| --- | --- | --- | --- | --- | --- | --- | --- |
| PF-655: peptide having multiple activities (chain 1 DAPCFDDQFGDLKCQMC; chain 2 DAPCFDDQFGDLKCQMC; Peptide with targeting and/or antimicrobial activity) | M. smegmatis | G B | MRSA (M) | S. epidermidis (R) | S. pneumoniae (H) | – | Organism, effect (microorganisms [3]; B. subtilis): B. subtilis (H) |
| PF-664: peptide having multiple activities (chain 1 DQLCVEYPARVSTG; chain 2 DQLCVEYPARVSTG; Peptide with targeting and/or antimicrobial activity) | M. smegmatis | G B | MRSA (R) | S. epidermidis (M) | S. pneumoniae (M) | – | Organism, effect (microorganisms [3]; E. faecalis): E. faecalis (R) |
| PF-681: peptide having multiple activities (TALTTVGVSGARLITYCVGVEDI; Peptide with targeting and/or antimicrobial activity) | M. smegmatis | G B | MRSA (M) | S. epidermidis (M) | S. pneumoniae (M) | – | Organism, effect (microorganisms [3]; C. jeikeium): C. jeikeium (R); Organism, effect (microorganisms [3]; E. faecalis): E. faecalis (R) |
| PF-686: peptide having multiple activities (LAVLMGYIGYRGWSGKRHINRQ; Peptide with targeting and/or antimicrobial activity) | M. smegmatis | G B | MRSA (M) | S. epidermidis (H) | S. pneumoniae (A) | – | Organism, effect (microorganisms [3]; B. subtilis): B. subtilis (I); Organism, effect (microorganisms [3]; C. albicans): C. albicans (B); Organism, effect (microorganisms [3]; E. faecalis): E. faecalis (R) |
| PF-737: peptide having multiple activities (KSSGSSASASSTAGGSSSK; Peptide with targeting and/or antimicrobial activity) | S. epidermidis; also recorded: S. pneumoniae | G B | – | – | S. pneumoniae (D) | – | – |
| PF-738: peptide having multiple activities (KSGATSAASGAKSGASS; Peptide with targeting and/or antimicrobial activity) | S. epidermidis; also recorded: C. albicans; also recorded: C. jeikeium | G B | MRSA (M) | – | – | – | – |
| PF-741: peptide having multiple activities (AKREDTVAAQIGANILNLIQ; Peptide with targeting and/or antimicrobial activity) | S. epidermidis and M. luteus and P. mirabilis and P. aeruginosa and C. albicans and MRSA and S. pneumoniae and E. faecalis | G B | MRSA (C) | S. epidermidis (C) | S. pneumoniae (D) | S. mutans (D) | Organism, effect (microorganisms [3]; E. coli): E. coli (C); Organism, effect (microorganisms [3]; M. luteus): M. luteus (C); Organism, effect (microorganisms [3]; P. mirabilis): P. mirabilis (C) |
| PF-744: peptide having multiple activities (LGVGTFVGKVLIKNQQKQKSKKKAQ; Peptide with targeting and/or antimicrobial activity) | S. epidermidis and M. luteus and E. coli and MRSA and S. pneumoniae and E. faecalis and C. jeikeium | G B | – | – | S. pneumoniae (H) | – | – |
| PF-746: peptide having multiple activities (FLGNSQYFTRK; Peptide with targeting and/or antimicrobial activity) | S. epidermidis; also recorded: M. luteus; also recorded: E. coli; also recorded: C. albicans; also recorded: S. pneumoniae; also recorded: E. faecalis; also recorded: C. jeikeium | G B | MRSA (C) | S. epidermidis (C) | S. pneumoniae (C) | S. mutans (D) | Organism, effect (microorganisms [3]; E. coli): E. coli (C); Organism, effect (microorganisms [3]; M. luteus): M. luteus (C); Organism, effect (microorganisms [3]; P. aeruginosa): P. aeruginosa (A) |
| PF-756: peptide having multiple activities (DALLRLA; Peptide with targeting and/or antimicrobial activity) | S. epidermidis and M. luteus and C. albicans and MRSA and C. jeikeium | G B | – | – | S. pneumoniae (A) | – | – |
| PF-757: peptide having multiple activities (PQAISSVQQNA; Peptide with targeting and/or antimicrobial activity) | M. luteus and C. albicans and MRSA | G B | – | – | S. pneumoniae (H) | – | – |
| PF-760: peptide having multiple activities (DHITLDDYEIHDGFNFELYYG; Peptide with targeting and/or antimicrobial activity) | S. epidermidis; also recorded: M. luteus | G B | MRSA (M) | S. epidermidis (M) | S. pneumoniae (C) | – | – |
| PF-761: peptide having multiple activities (SKFELVNYASGCSCGADCKCASETECKCASKK; Peptide with targeting and/or antimicrobial activity) | S. epidermidis and M. luteus and P. mirabilis and P. aeruginosa and C. albicans and MRSA and S. pneumoniae and E. faecalis | G B | MRSA (D) | S. epidermidis (C) | S. pneumoniae (C) | S. mutans (D) | Organism, effect (microorganisms [3]; E. coli): E. coli (C); Organism, effect (microorganisms [3]; M. luteus): M. luteus (C); Organism, effect (microorganisms [3]; P. aeruginosa): P. aeruginosa (C) |
| PF-762: peptide having multiple activities (PAPAPSAPAPAPEQPEQPA; Peptide with targeting and/or antimicrobial activity) | M. luteus; also recorded: C. albicans | G B | – | – | S. pneumoniae (H) | – | – |
| PF-764: peptide having multiple activities (GYFEPGKRD; Peptide with targeting and/or antimicrobial activity) | S. epidermidis and M. luteus and C. albicans and MRSA and S. pneumoniae and E. faecalis and C. jeikeium | G B | MRSA (D) | – | S. pneumoniae (H) | – | – |
| PF-776: peptide having multiple activities (VSILLYLSATIILPNVLRLLVARAIIVRV; Peptide with targeting and/or antimicrobial activity) | S. epidermidis and M. luteus and P. mirabilis and C. albicans and MRSA and S. pneumoniae and E. faecalis | G B | MRSA (D) | S. epidermidis (D) | S. pneumoniae (C) | S. mutans (D) | Organism, effect (microorganisms [3]; E. coli): E. coli (C); Organism, effect (microorganisms [3]; M. luteus): M. luteus (C) |
| PF-C052: peptide having multiple activities (SRFRNGV; Peptide with targeting and/or antimicrobial activity) | A. naeslundii; also recorded: F. nucleatum; also recorded: S. mutans | G B | – | – | – | – | Organism, effect (microorganisms [3]; P. gingivalis): P. gingivalis (H) |
| PF-C055: peptide having multiple activities (YNLSIYIYFLHTITIAGLITLPFII; Peptide with targeting and/or antimicrobial activity) | A. naeslundii; also recorded: F. nucleatum; also recorded: P. gingivalis; also recorded: S. mutans | G B | – | – | – | S. mutans (I) | Organism, effect (microorganisms [3]; F. nucleatum): F. nucleatum (T) |
| PF-C057: peptide having multiple activities (YFWWYWVQDCIPYKNNEVWLELSNNMK; Peptide with targeting and/or antimicrobial activity) | A. naeslundii; also recorded: F. nucleatum; also recorded: P. gingivalis; also recorded: S. mutans | G B | – | – | – | S. mutans (I) | – |
| PF-C062: peptide having multiple activities (PLARATEVVATLFIICSLLLYLTR; Peptide with targeting and/or antimicrobial activity) | A. naeslundii; also recorded: F. nucleatum; also recorded: P. gingivalis; also recorded: S. mutans; also recorded: T. denticola | G B | – | – | – | S. mutans (I) | Organism, effect (microorganisms [3]; F. nucleatum): F. nucleatum (T) |
| PF-C064: peptide having multiple activities (DEEALEMGANLYAQFAIDFLNSKK; Peptide with targeting and/or antimicrobial activity) | A. naeslundii; also recorded: F. nucleatum; also recorded: P. gingivalis; also recorded: S. mutans; also recorded: T. denticola | G B | – | – | – | – | Organism, effect (microorganisms [3]; F. nucleatum): F. nucleatum (T) |
| PF-C069: peptide having multiple activities (NALMLREMQLAKNIKVEVTDVLSNKKYC; Peptide with targeting and/or antimicrobial activity) | A. naeslundii; also recorded: F. nucleatum; also recorded: P. gingivalis; also recorded: S. mutans; also recorded: T. denticola | G B | – | – | – | – | Organism, effect (microorganisms [3]; F. nucleatum): F. nucleatum (T) |
| PF-C071: peptide having multiple activities (QVIVKIL; Peptide with targeting and/or antimicrobial activity) | A. naeslundii; also recorded: F. nucleatum; also recorded: S. mutans | G B | – | – | – | – | Organism, effect (microorganisms [3]; F. nucleatum): F. nucleatum (T) |
